From patent publication US20150320782A1, “Methods, compositions and kits for treating, modulating, or preventing ocular angiogenesis or fibrosis in a subject using a galectin protein inhibitor” (TUFTS UNIVERSITY, priority 2012, published 2015)
Values joined by “and” are separate entries in the source; they are usually repeats but may differ in a detail not shown here. Equal entries are not always repeated. “Also recorded” adds a separate entry of the source. Values belong to the compound of their own block, whether it stands above or below them.

How the values were obtained:
HUVEC [1] = assay: HUVEC viability by calcein AM and WST-1; format: cell-based, human; conditions: three hours treatment; TD139 5 μM, Triton X-100 0.1%
Experimental: The cell viabilities of the treated HUVEC and control HUVEC were determined with each of calcein AM and WST-1, two systems used to determine cell viability. Calcein AM was added to a group of treated HUVEC, which were incubated for 30 minutes (FIG. 14A). Another group of treated HUVEC were incubated for two hours with WST-1, a tetrazolium salt used for determining cell proliferation and is an indicator or cell viability (FIG. 14B). Data are plotted with mean±SEM and analyzed with one-way ANOVA. ***P<0.001 vs control. Fluorescence emission was detected by a spectrophotometer for each treated group contacted with either calcein AM or WST-1.

galectin-1 / VEGFR-2 = molecular target: T1, galectin-1 / VEGFR-2 (Homo sapiens, UniProt P09382); assay: HUVEC lysate VEGFR-2 pull-down on galectin-1 agarose beads; format: binding; conditions: 0.1 M saccharide
T1 construct: host or cells: VEGFR-2: endogenous, HUVEC lysate
Excerpt: FIG. 12 is a photomicrograph of a western blot showing that galectin-1 and galectin-3 interacted with VEGFR-2. […] Control samples contained only HUVEC lysates or beads. Bound material was eluted with Laemmli sample buffer, added to 4-20% SDS-PAGE gels, and electrophoresed. Gels were transferred onto membrane blots, which was then probed with anti-VEGFR-2 antibody. VEGFR-2 antibody was observed bound to the HUVEC lysate control and not to the bead only control. […] Thus, the interaction between VEGFR-2 and galectin-1 and galectin-3 was observed herein to be carbohydrate-dependent.
Control HUVEC lysates were incubated with galectin-1 agarose beads or galectin-3 agarose beads only. The beads were rinsed to remove unbound material.
HUVEC lysate material bound to the beads was eluted with the Laemmli sample buffer and was analyzed using gel electrophoresis (4-20% SDS-PAGE gels). Following blocking, membrane blots were probed using anti-VEGFR-2 antibody (FIG. 12). […] Further, the VEGFR2 HUVEC lysate binding to the beads was […] for beads treated with sucrose, a noncompeting saccharide.

[2] = system: TM cells on galectin-8 coated wells; conditions: cited from earlier work
galectin-3 / VEGFR-2 = molecular target: T2, galectin-3 / VEGFR-2 (Homo sapiens, UniProt P17931); assay: HUVEC lysate VEGFR-2 pull-down on galectin-3 agarose beads; format: binding; conditions: 0.1 M saccharide
T2 construct: host or cells: VEGFR-2: endogenous, HUVEC lysate

[3] = system: endothelial cell (EC) spheroids (HUVEC); format: cell-based
Experimental: Methyl cellulose powder (6 g) was autoclaved with stirring using a magnetic bar in a 500 mL bottle. The powder was dissolved in 250 mL of DMEM medium at 60° C. with stirring for 30 minutes, and then 250 mL DMEM at room temperature was added and the mixture was stirred for two hours at 4° C. The resulting mixture was then aliquoted into 50 mL cylindrical tubes and centrifuged (6170 revolutions per minute) for two hours at room temperature to remove debris interfering with spheroid formation. The clear supernatant was collected from the centrifuged tubes.
Endothelial cells (EC) were cultured in containers and were detached from the container surfaces with 0.25% trypsin. The pH of the trypsinized EC cells was neutralized with DMEM. Spheroid solution was prepared in tubes by combining 3.75 mL of methylcellulose, 1.75 mL FBS, 17.5 μl pen/strep, and […] endothelial cells, and adding DMEM to bring the total volume to 17.5 mL. The spheroid solution was mixed by inverting tubes, and 150 μl aliquots were added to each well of a 96 well plate using a multichannel pippettor and wide mouth tips. Spheroids were settled and were incubated for 24 hours at 37° C. in 5% CO2.
Each 96 well plate yielded spheroids sufficient for four wells of a 24 well plate. The collagen solution was prepared using 2.3 mL (3.9 mg/mL) collagen type 1, 400 μl 10×M199 medium, 200 μl FBS, and 1.1 mL water. The collagen solution was neutralized with sodium hydroxide using a color pH indicator. The methyl cellulose solution (4.5 mL) was combined with 1.5 mL DMEM and warmed to 37° C. in a water bath. EC spheroids were collected using a wide mouth pipette and centrifuged (700 revolutions per minutes) for three minutes at room temperature.
The resulting supernatant was removed, and two mL of methyl cellulose solution were added to the pellet. Neutralized collagen solution (2 mL) was added to the mixture, and mixed using a pipette carefully to avoid bubble formation.
An aliquot (1 mL) of the mixed collagen solution was added to four wells of a 24 well plate, and the plate was incubated at 37 C 5% CO2 for 30 minutes to polymerize the collagen. […] Control collagen samples were treated with 100 μl of EBM-2 and 25 ng/mL VEGF in EBM-2.
See Meyer et al. 2003 J Biol Chem. 278(18): 16347-55. Representative images of the incubated samples were obtained and the cumulative length in arbitrary units of the endothelial cell sprouts was determined by ImageJ processing and analysis procedures. The data was analyzed by Student's t-test (Table 2).

mouse retinas = assay: Alkali (sodium hydroxide) model, retinal gliosis (GFAP western blot); conditions: 10 μl of 50 mM TD139 subconjunctival daily for 14 days; vs PBS
Experimental: Corneas of murine subjects were contacted with sodium hydroxide. […] Control subjects were injected subconjunctively with PBS control vehicle only. Subjects were sacrificed by ketamine and xylazine on day 14 post surgery. […] Aliquots of retinal protein (30 μg) from lysates, or a control β-actin material were loaded to gels and transferred onto nitrocellulose membranes. Blots were probed overnight at 4° C. with rabbit anti mouse antibody specific for glial fibrillary acidic protein (GFAP; 50,000 dilution; Abcam Inc.; FIG. 18 top row), or with a control antibody specific for β-actin. […] Control blots were probed with rabbit antibody specific for β-actin (FIG. 18 bottom row). The probes were washed and were incubated with goat anti rabbit IRDye 800CW antibody (1:10,000 dilution; LI-Cor Biosciences). Membranes were scanned and quantified using an Odessey imaging system (Li-Cor Biosciences).
C57BJ/6 mice were anesthetized by intraperiteoneal injection of ketamine and xylazine mixture. Corneas were topically anesthetized by application of proparacain eye drop. […]
Subjects were sacrificed on day fourteen after alkalisurgery using a mixture of ketamine and xylazine. […] The membranes were washed and incubated with goat anti rabbit IRDye 800CW antibody (1:10,000; Li-Cor Inc.), the membranes were scanned and quantified with Odessey imaging system (Li-Cor Inc.). […]

HUVEC [4] = assay: VEGF-A-induced endothelial cell migration (chemotaxis chamber); format: cell-based, human; conditions: three hours
Experimental: FIG. 13B is a bar graph showing migration distance (migration index, ordinate) of HUVEC cells treated with (abscissa) […] as in FIG. 13A. HUVECs were serum starved overnight, detached with proteolytic and collagenolytic enzyme product Accutase™ (Millipore Inc.), resuspended in 1% FBS/M199 and then added to the upper chamber of a migration testing system. […] After three hours of incubation, HUVECs that migrated to lower side of the membrane were counted.
HUVEC were incubated without serum overnight, detached with Accutase, re-suspended in 1% FBS/M199 and added in an upper chamber separated from a bottom chamber by a membrane. […] Control HUVEC were treated with neither VEGF-A nor TD139.
Data were plotted as mean±SEM and analyzed with one-way ANOVA. *P<0.05 vs control; ***P<0.001 vs control; ^###P<0.001 vs VEGF-A.

mouse corneas [5] = assay: Silver nitrate cautery-induced corneal neovascularization, TD139; format: in vivo; conditions: TD139 325 ng sub-conjunctival every other day, 50 μM eye drops daily; day five after cautery; control about 40%
Excerpt: FIG. 11A is a drawing of an experimental regimen for drug administration in murine subjects strain C57B/6L. […] Silver nitrate was applied on day zero to cauterize the eyes of the subjects. Mice were sacrificed on day five, and flat mounts of corneas were stained with anti-CD31 to visualize blood vessels. Data shown in FIG. 11 B-C were from subjects treated as described in FIG. 11A.
Neovascularization in the eye was induced in mouse corneas by cauterization using silver nitrate. […] Control subjects were sub-conjunctivally injected with vehicle only (PBS containing 0.5% DMSO only).
After five days of either sub-conjunctival injection treatment or eye drop treatment, subjects were sacrificed, and flat mounts of corneas were excised, photographed, and stained with anti-CD31 to visualize blood vessels (FIG. 11B, magnification is ×100). The density of blood vessels covering the whole cornea was quantified by ImageJ and was analyzed with Student's t test (FIG. 11C).

HUVEC spheroids = assay: VEGF-A-induced HUVEC spheroid sprouting in type I collagen gels; format: cell-based, human; conditions: VEGF-A 100 ng/ml; TD139 0.1, 1, 5 and 10 μM; 24 hours
Experimental: HUVEC spheroids were prepared and seeded into type I collagen gels. […] Control collagen samples were treated with 100 μl of EBM-2 and 25 ng/mL VEGF in EBM-2. […] After a 24 hour incubation, spheroids were stained with calcein AM dye and photographed by a fluorescent microscope. Cumulative sprout lengths for HUVEC in gels were quantified by ImageJ.
HUVEC spheroids were prepared as described in examples herein, and the spheroids were seeded into type I collagen gels. […] Control spheroids were treated with neither VEGF-A nor TD139. After 24 hours of treatment, spheroids were stained with calcein AM, a cell-permeant dye that indicates cell viability in eukaryotic cells (Invitrogen Inc.), and the spheroids were photographed by a fluorescent microscope. Cumulative sprout lengths were quantified by ImageJ.

mouse corneas [6] = assay: Alkali (sodium hydroxide) model of corneal fibrosis; conditions: vs PBS
Experimental: C57BJ/6 mice were anesthetized by intraperiteoneal injection of a mixture of ketamine and xylazine. Corneas of the subjects were topically anesthetized by applying an eye drop of proparacain. 1.5 μl drop of 0.15M sodium hydroxide was applied for one minute to the central cornea of each subject. Each eye was immediately washed extensively in PBS, and corneal epithelium and limbal epithelium were gently removed with an ALGEBRUSH™ optical device (Storz Ophthalmic Instruments, St. Louis, Mo.). Each cornea was covered with an antibiotic ointment. […] Control subjects were injected subconjunctivally with control vehicle PBS. Corneas were visualized and analyzed for opacity, and protein markers for fibrosis were quantified as described below.
Mice were sacrificed at day 14 post surgery using a mixture of ketamine and xylazine. Mouse corneas were dissected and lysed in ice-cold lysis buffer containing 5 mM NaF, 1 mM PMSF, 1 mM DTT, 20 mM HEPES, 1 mM EDTA, 400 mM NaCl, 1 mM EGTA, 0.1% NP-40, and a protease inhibitor cocktail product (Roche). Aliquots of corneal protein (20 μg) were loaded to each lane of a gel and transferred onto a nitrocellulose membrane. Blots were probed overnight at 4° C. with either a rabbit antibody specific for α-smooth muscle actin (10,000 dilution; Abcam Inc., Cambridge, England), or with a control antibody specific for β-actin. The blots were extensively washed and were incubated with goat anti rabbit IRDye 800CW antibody (1:10,000 dilution; LI-Cor Biosciences; Lincoln Nebr.). Membranes were scanned and quantified using an Odessey imaging system (Li-Cor Biosciences).
C57BJ/6 mice were anesthetized by intraperiteoneal injection of ketamine and xylazine mixture. […]
Subjects were sacrificed on day fourteen after alkalisurgery using a mixture of ketamine and xylazine. […] The membranes were washed and incubated with goat anti rabbit IRDye 800CW antibody (1:10,000; Li-Cor Inc.), the membranes were scanned and quantified with Odessey imaging system (Li-Cor Inc.).
SMA (smooth muscle actin) is a marker of corneal fibrosis. […] Opacity of the eye was scored on day 7 and day 14. […]

VEGFR2 = VEGFR2 expression in HUVEC by western blot; format: cell-based, human; conditions: 10 μM TD139, six hours
Experimental: Cell lysates were analyzed by electrophoresis in 4-20% SDS-PAGE gels. The gels were transferred to western blot membranes, and were probed with anti-VEGFR-2 antibody (FIG. 15 top row) or β-actin antibody (FIG. 15 bottom row).
Control HUVEC were not treated with TD139. Cell lysates were analyzed using gel electrophoresis (4-20% SDS-PAGE gels), and the membrane blots were probed with either anti-VEGFR-2 antibodies or β-actin antibodies.

recombinant galectin-3 = recombinant galectin-3 (Homo sapiens, UniProt P17931); assay: Microtiter plate binding assay with galectin receptor-HRP conjugate, galectin-3; conditions: plate coated with recombinant galectin-3
Experimental: Microtiter plate wells were coated with recombinant galectin-1 or galectin-3 (10 μg/ml, 50 μl/well), and then washed with wash solutions containing PBS and detergent. The wells were blocked with BSA, and washed with wash solution/buffer. […] Control wells included PBS only. An amount of galectin receptor-HRP conjugate (100 μL/well, 1 mg/mL) specific for either galectin-1 or galectin-3 was added to the respective wells. The wells were incubated for one hour and then washed with buffer at room temperature. The horse-radish peroxidase enzyme reaction was performed using a TMB-peroxidase substrate kit (BioRad Inc.). The reaction was stopped after one hour by addition of 1N sulfuric acid (100 μL/well) and the optical density was read at 450 nm.

recombinant galectin-1 = recombinant galectin-1 (Homo sapiens, UniProt P09382); assay: Microtiter plate binding assay with galectin receptor-HRP conjugate, galectin-1; conditions: plate coated with recombinant galectin-1
Chain of recombinant galectin-1 (P09382 whole entry): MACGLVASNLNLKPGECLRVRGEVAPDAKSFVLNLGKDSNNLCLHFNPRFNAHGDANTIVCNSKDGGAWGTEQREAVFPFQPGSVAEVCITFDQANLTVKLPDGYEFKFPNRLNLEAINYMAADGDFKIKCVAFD

T1 sequence (P09382 whole entry): as above
Chain of recombinant galectin-3 (P17931 whole entry): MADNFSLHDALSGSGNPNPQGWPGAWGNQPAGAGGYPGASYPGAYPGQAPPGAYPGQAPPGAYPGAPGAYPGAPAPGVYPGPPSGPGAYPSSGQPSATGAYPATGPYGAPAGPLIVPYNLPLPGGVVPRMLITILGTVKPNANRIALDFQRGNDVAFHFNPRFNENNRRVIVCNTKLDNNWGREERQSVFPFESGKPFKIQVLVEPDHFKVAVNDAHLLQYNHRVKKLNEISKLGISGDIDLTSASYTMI
T2 sequence (P17931 whole entry): as above

Compound: Triton™ X-100
- Calcein AM fluorescence (cell viability) (HUVEC [1]): reduced fluorescence
- WST-1 signal (cell viability) (HUVEC [1]): reduced WST-1 fluorescence

- Inhibition of VEGFR-2 binding to galectin-1 beads (galectin-1 / VEGFR-2): not inhibited
- Inhibition of VEGFR-2 binding to galectin-3 beads (galectin-3 / VEGFR-2): not inhibited
Compound: OC[C@H]1O[C@@](CO)(O[C@H]2O[C@H](CO)[C@@H](O)[C@H](O)[C@H]2O)[C@@H](O)[C@@H]1O [sucrose]
- Adhesion of TM cells to galectin-8 coated wells [2]: not inhibited

Compound: CC(=O)N[C@H]1[C@H]([C@H](O)[C@H](O)CO)O[C@@](O[C@H]2[C@@H](O)[C@@H](CO)O[C@@H](O[C@H]3[C@H](O)[C@@H](NC(C)=O)C(O)O[C@@H]3CO)[C@@H]2O)(C(=O)O)C[C@@H]1O (stereo partly shown) [NeuAca2-3Galβ1-4GlcNAc]
- Spreading of TM cells on galectin-8 protein coated wells [2]: inhibited

- Inhibition of VEGFR-2 binding to galectin-1 beads (galectin-1 / VEGFR-2): inhibited
Compound: OC[C@H]1O[C@@H](O[C@H]2[C@H](O)[C@@H](O)C(O)O[C@@H]2CO)[C@H](O)[C@@H](O)[C@H]1O (stereo partly shown) [lactose]
- Adhesion of TM cells to galectin-8 coated wells [2]: inhibited or prevented

Compound: CC(=O)N[C@H]1[C@H]([C@H](O)[C@H](O)CO)O[C@](OC[C@H]2O[C@@H](O[C@H]3[C@H](O)[C@@H](NC(C)=O)C(O)O[C@@H]3CO)[C@H](O)[C@@H](O)[C@H]2O)(C(=O)O)C[C@@H]1O (stereo partly shown) [NeuAca2-6Galβ1-4GlcNAc]
- Spreading of TM cells on galectin-8 protein coated wells [2]: no effect

Compound: VEGF
- Fold change in capillary sprouting of EC over control cells not contracted with VEGF and inhibitor ([3]; VEGF 25 ng/mL only): 650 fold and 921 fold and 604 fold and 800 fold
- Formation of endothelial cell sprouts compared to medium only ([3]; VEGF 25 ng/mL only): four-fold

- Binding to galectin-3 (recombinant galectin-3): specifically bound
- Binding to galectin-1 (recombinant galectin-1): specifically bound
Compound: OC[C@H]1O[C@@H](S[C@@H]2O[C@H](CO)[C@H](O)[C@H](n3cc(-c4cccc(F)c4)nn3)[C@H]2O)[C@H](O)[C@@H](n2cc(-c3cccc(F)c3)nn2)[C@H]1O [TD139, bis-{3-deoxy-3-[4-(3-fluorophenyl)-1H-1,2,3-triazol-1-yl]-β-D-galactopyranosyl}sulfane]
- GFAP expression in retinal lysates (mouse retinas): reduced expression of GFAP
- VEGF-A-induced chemotaxis and migration (HUVEC [4]; TD139 1 to 5000 nM, dose-dependent): significantly abrogated
- Concentration as low as which VEGF-A-induced chemotaxis was significantly abrogated (HUVEC [4]; VEGF-A 100 ng/mL): 1 nM
- Decrease of VEGF-mediated EC sprouting ([3]; 10 μM TD139, compared to VEGF alone): about one-third
- Reduction of the extent of VEGF-mediated sprouting ([3]; 50 μM TD139): about two-thirds
- Density of blood vessels covering the cornea (percent area) (mouse corneas [5]): 28%
- VEGF-A-induced sprouting (cumulative sprout length) (HUVEC spheroids): significantly inhibited
- Corneal opacity (score 0-4) (mouse corneas [6]; 10 μl of 50 mM TD139 subconjunctival daily for 14 days after alkali): area of opacity less than about the site of the pupil; also recorded: reduced corneal opacity
- Reduction of α-SMA (smooth muscle actin) expression in corneal lysates (mouse corneas [6]; 10 μl of 50 mM TD139 subconjunctival daily for 14 days): 30%
- Total protein expression of VEGFR2 (VEGFR2): little or no effect
- Calcein AM fluorescence (cell viability) (HUVEC [1]): comparable calcein AM fluorescence
- WST-1 signal (cell viability) (HUVEC [1]): comparable cell viability
